From patent US12023336B2, “Antiviral drug compounds and composition thereof” (priority 2018, dated 2024) come the findings set out here.

Where a name gives a salt, the structure may show the parent alone.

For the first assay, the system named is HIV-1NL4.3. In words: microbe, parasite or virus in culture. In kind it is cell-based. The settings on record: 10 μM; HIV-1NL4.3 0.1 MOI; TZM-bl cells; luminescence 48 h. The protocol:
TZM-bl cells were seeded at the density of 12,000-15,000 cells/well of 96 well plate with 100 μL DMEM (with 10% FBS) in each well. 12-hours post seeding, the media was replaced with fresh DMEM containing HTV-1NL4.3 at 0.1 MOI and cells were treated with different molecules independently at 10 μM working concentration. Cells were incubated in humidified CO2 incubator for 4-hours. After incubation, the media was replaced and cells were washed twice with incomplete DMEM and 100 μL of complete DMEM was added in each wells along with the molecules of interest and incubated at 37° C. in humidified CO2 incubator. 48-hours post incubation, the media was removed and cells were washed twice with 100 μL of 1×PBS. After washing, cells were lysed using cell culture lysis reagent and Steady-Glo substrate was added at 1:1 ration in each well. Luminescence was measured using Molecular Devices M5 (Table 2). % Inhibition was calculated using following formula and plotted.
[formula] (RLU=Relative Luminescence Unit)
For the compound `CC(C)NC[C@@H](O)c1ccc(O)c(O)c1.O=C(O)C(O)C(O)C(=O)O` [S(+)-Isoproterenol (+)-bitartrate], the “% Inhibition at 10 μM Concentration” value is on record as 97.10%.
Turning to `CC(C)NC[C@H](O)COc1cccc2ccccc12.Cl` [(S)-Propranolol hydrochloride], the “% Inhibition at 10 μM Concentration” value worked out at 99.30%.
For the compound `Nc1ccc(-c2nc3ccc(-c4nc5ccc(N)cc5[nH]4)cc3[nH]2)cc1` [RO 90-7501], the “% Inhibition at 10 μM Concentration” value is 99.67%.
For `O=[N+]([O-])/C=C/c1ccc2c(c1)OCO2` [MNS], the “% Inhibition at 10 μM Concentration” value was 99.63%.
Turning to `O=C(O)/C=C\C(=O)O.O=C1/C(=C/c2ccccc2)C[C@@]2(O)[C@H]3Cc4ccc(O)c5c4[C@@]2(CCN3CC2CC2)[C@H]1O5` [BNTX maleate salt hydrate], the “% Inhibition at 10 μM Concentration” value was 99.26%.
Same read-out and setting: as for `CCOC(=O)c1ncn2c1[C@@H]1CCCN1C(=O)c1cc(OC)ccc1-2` [L-655,708], the figure is 97.43%; as for `CNCCNS(=O)(=O)c1cccc2cnccc12.Cl.Cl` [H-8 dihydrochloride], 99.57%; as for `CC(C)[C@H]1c2ccc(F)cc2CC[C@@]1(CCN(C)CCCc1nc2ccccc2[nH]1)OC(=O)C1CC1` [NNC 55-0396], 97.75%.
On the same count and under the same terms, as for `O=Nc1ccc2oc(=O)ccc2c1` [6-Nitroso-1,2-benzopyrone], the figure is 99.15%; as for `O=c1oc(Cl)c(Cl)c2ccccc12` [Dichloroisocoumarin], 97.06%.
In the case of `Oc1ccc(/C=C/c2ccc(/C=C/c3ccc(O)cc3)c(Br)c2)cc1` [K114], the “% Inhibition at 10 μM Concentration” value turned out to be 96.16%.
For the compound `CCc1ccccc1OC[C@@H](O)CN[C@H]1CCCc2ccccc21.O=C(O)C(=O)O` [SR 59230A oxalate], the “% Inhibition at 10 μM Concentration” value was found to be 97.52%.

The assay is the same for the next values; noted with them: Human immunodeficiency virus 1, TZM-bl, 48 h, read-out: % Inhibition at 10 μM Concentration.
Consider `CNCCCC12CCC(c3ccccc31)c1ccccc12` [Maprotiline hydrochloride], for which the inhibition at 10 µM is 98.9%.
As to `O=C1c2ccccc2C(=O)c2c(NCCc3ccc(O)cc3)ccc(NCCc3ccc(O)cc3)c21` [1,4-Bis[(p-hydroxyphenethyl)amino]-anthraquinone], the inhibition at 10 µM amounted to 98.9%.

Staying with this assay, now noted: Human immunodeficiency virus 1; 10 μM; HIV-1NL4.3 0.1 MOI; TZM-bl cells; luminescence 48 h; read-out: % Inhibition at 10 μM Concentration.
Turning to `OCCN1CCN(CCCN2c3ccccc3Sc3ccc(Cl)cc32)CC1` [Perphenazine], the inhibition at 10 µM was found to be 99.6%.
With `CCN(CC)CCOc1ccc(Nc2ncc3cc(-c4c(Cl)cccc4Cl)c(=O)n(C)c3n2)cc1` [PD-166285 hydrate], the inhibition at 10 µM turned out to be 97%.
The same measure, in the same setting: as for `O=C1Cc2c([nH]c3ccc(Br)cc23)-c2ccccc2N1` [Kenpaullone], the figure is 98.7%.
On to `CC[N+](CC)(CC)CCOc1ccc(/C=C/c2ccccc2)cc1` [MG 624], for which the inhibition at 10 µM amounted to 97.1%.
Consider `O=C(O)C1=CC(=C(c2ccc(O)c(C(=O)O)c2)c2ccc(O)c(C(=O)O)c2)C=CC1=O` [Aurintricarboxylic acid], for which the inhibition at 10 µM was 97.2%.
Consider `COc1cc2nc(N3CCN(C(=O)C4COc5ccccc5O4)CC3)nc(N)c2cc1OC` (stereo not drawn) [Doxazosin mesylate], for which the inhibition at 10 µM was determined as 100%.
Regarding `NC(=O)CN1CC(O)CC1=O` (stereo not drawn) [Oxiracetam], the inhibition at 10 µM is 96.5%.
As to `O=C1c2c(O)ccc(O)c2C(=O)c2c(NCCNCCO)ccc(NCCNCCO)c21` [Mitoxantrone], the inhibition at 10 µM was found to be 97.1%.
Turning to `Cc1ccc(-c2cc(C(F)(F)F)nn2-c2ccc(S(N)(=O)=O)cc2)cc1` [Celecoxib], the inhibition at 10 µM is 95.1%.
As for `CCN(CC)CCCC(C)Nc1c2ccc(Cl)cc2nc2ccc(OC)cc12` (stereo not drawn) [Quinacrine dihydrochloride], the inhibition at 10 µM is 100%.
Turning to `COC(=O)C1=C(C)NC(C)=C(C(=O)OCCN(C)Cc2ccccc2)C1c1cccc([N+](=O)[O-])c1` (stereo not drawn) [Nicardipine hydrochloride], the inhibition at 10 µM turned out to be 99.6%.
Turning to `CNCCC=C1c2ccccc2CCc2ccccc21` [Nortriptyline hydrochloride], the inhibition at 10 µM was 99.2%.
For `CC[C@@]1(O)C(=O)OCc2c1cc1n(c2=O)Cc2cc3c(CN(C)C)c(O)ccc3nc2-1` [Topotecan hydrochloride hydrate], the inhibition at 10 µM came out at 98.1%.
